# Measurements as given in ChEMBL document CHEMBL6153030, “Design, synthesis, and biological evaluation of novel pleuromutilin derivatives with methicillin-resistant Staphylococcus aureus -targeting phenol linker groups” (Eur J Med Chem, 2025).
# How the values were obtained:
# Format in all cases: functional
# Streptococcus pneumoniae = test: Antibacterial activity against Streptococcus pneumoniae ATCC 49619 assessed as inhibition of bacterial growth incubated for 96 hrs by broth microdilution method
# Escherichia coli = test: Antibacterial activity against Escherichia coli ATCC 25922 assessed as inhibition of bacterial growth incubated for 96 hrs by broth microdilution method
# Staphylococcus aureus [1] = test: Antibacterial activity against methicillin-resistant Staphylococcus aureus ATCC43300 assessed as inhibition of bacterial growth incubated for 96 hrs by broth microdilution method
# [2] = test system: Staphylococcus epidermidis; test: Antibacterial activity against methicillin-resistant Staphylococcus epidermidis ATCC 51625 assessed as inhibition of bacterial growth incubated for 96 hrs by broth microdilution method
# Staphylococcus aureus [3] = test: Antibacterial activity against Staphylococcus aureus ATCC 29213 assessed as inhibition of bacterial growth incubated for 96 hrs by broth microdilution method
SMILES,MIC (Streptococcus pneumoniae),MIC (Escherichia coli),MIC (Staphylococcus aureus [1]),MIC [2],MIC (Staphylococcus aureus [3])
C=CCCOc1cccc(SCC(=O)O[C@@H]2C[C@@](C)(C=C)[C@@H](O)[C@H](C)[C@]34CCC(=O)[C@H]3[C@@]2(C)[C@H](C)CC4)c1,0.5 µg/mL,> 64 µg/mL,0.5 µg/mL,0.25 µg/mL,0.5 µg/mL
C=C[C@]1(C)C[C@@H](OC(=O)CSc2cccc(O)c2)[C@]2(C)[C@H](C)CC[C@]3(CCC(=O)[C@H]32)[C@@H](C)[C@@H]1O,0.125 µg/mL,> 64 µg/mL,0.062 µg/mL,0.125 µg/mL,0.125 µg/mL
C=C[C@]1(C)C[C@@H](OC(=O)CSc2cccc(OCC#CC)c2)[C@]2(C)[C@H](C)CC[C@]3(CCC(=O)[C@H]32)[C@@H](C)[C@@H]1O,< 0.031 µg/mL,> 64 µg/mL,0.125 µg/mL,0.125 µg/mL,0.125 µg/mL
C=C[C@]1(C)C[C@@H](OC(=O)CSc2ccccc2OCCCC)[C@]2(C)[C@H](C)CC[C@]3(CCC(=O)[C@H]32)[C@@H](C)[C@@H]1O,0.5 µg/mL,> 64 µg/mL,0.5 µg/mL,0.25 µg/mL,0.5 µg/mL
C=C[C@]1(C)C[C@@H](OC(=O)CSc2ccc(OCC#CC)cc2)[C@]2(C)[C@H](C)CC[C@]3(CCC(=O)[C@H]32)[C@@H](C)[C@@H]1O,0.062 µg/mL,> 64 µg/mL,0.25 µg/mL,0.125 µg/mL,0.25 µg/mL
C=C[C@]1(C)C[C@@H](OC(=O)CSc2cccc(OCc3ccc(C)cc3)c2)[C@]2(C)[C@H](C)CC[C@]3(CCC(=O)[C@H]32)[C@@H](C)[C@@H]1O,16 µg/mL,> 64 µg/mL,16 µg/mL,32 µg/mL,16 µg/mL
C=C[C@]1(C)C[C@@H](OC(=O)CSc2ccc(OCc3ccc(-c4ccccc4C#N)cc3)cc2)[C@]2(C)[C@H](C)CC[C@]3(CCC(=O)[C@H]32)[C@@H](C)[C@@H]1O,2 µg/mL,> 64 µg/mL,2 µg/mL,4 µg/mL,4 µg/mL
C=C[C@]1(C)C[C@@H](OC(=O)CSc2ccccc2OCc2ccc(C(=O)OC(C)(C)C)cc2)[C@]2(C)[C@H](C)CC[C@]3(CCC(=O)[C@H]32)[C@@H](C)[C@@H]1O,16 µg/mL,> 64 µg/mL,32 µg/mL,16 µg/mL,16 µg/mL
C=C[C@]1(C)C[C@@H](OC(=O)CSc2ccccc2OCc2ccc(C)cc2)[C@]2(C)[C@H](C)CC[C@]3(CCC(=O)[C@H]32)[C@@H](C)[C@@H]1O,16 µg/mL,> 64 µg/mL,32 µg/mL,32 µg/mL,16 µg/mL
C=C[C@]1(C)C[C@@H](OC(=O)CSc2ccccc2OCc2ccc(-c3ccccc3C#N)cc2)[C@]2(C)[C@H](C)CC[C@]3(CCC(=O)[C@H]32)[C@@H](C)[C@@H]1O,2 µg/mL,> 64 µg/mL,2 µg/mL,4 µg/mL,2 µg/mL
C=C[C@]1(C)C[C@@H](OC(=O)CSc2cccc(OCc3ccc(-c4ccccc4C#N)cc3)c2)[C@]2(C)[C@H](C)CC[C@]3(CCC(=O)[C@H]32)[C@@H](C)[C@@H]1O,2 µg/mL,> 64 µg/mL,2 µg/mL,8 µg/mL,4 µg/mL
C=C[C@]1(C)C[C@@H](OC(=O)CSc2cccc(OCc3ccc(C(=O)OC(C)(C)C)cc3)c2)[C@]2(C)[C@H](C)CC[C@]3(CCC(=O)[C@H]32)[C@@H](C)[C@@H]1O,8 µg/mL,> 64 µg/mL,32 µg/mL,8 µg/mL,4 µg/mL
C=C[C@]1(C)C[C@@H](OC(=O)CSc2ccc(O)cc2)[C@]2(C)[C@H](C)CC[C@]3(CCC(=O)[C@H]32)[C@@H](C)[C@@H]1O,0.125 µg/mL,> 64 µg/mL,0.062 µg/mL,0.062 µg/mL,0.062 µg/mL
C=CCCOc1ccc(SCC(=O)O[C@@H]2C[C@@](C)(C=C)[C@@H](O)[C@H](C)[C@]34CCC(=O)[C@H]3[C@@]2(C)[C@H](C)CC4)cc1,0.125 µg/mL,> 64 µg/mL,0.25 µg/mL,0.125 µg/mL,0.25 µg/mL
C=C[C@]1(C)C[C@@H](OC(=O)CSc2ccc(OCc3ccc(C(=O)OC(C)(C)C)cc3)cc2)[C@]2(C)[C@H](C)CC[C@]3(CCC(=O)[C@H]32)[C@@H](C)[C@@H]1O,8 µg/mL,> 64 µg/mL,32 µg/mL,8 µg/mL,4 µg/mL
C=C[C@]1(C)C[C@@H](OC(=O)CSc2ccccc2OCC#CC)[C@]2(C)[C@H](C)CC[C@]3(CCC(=O)[C@H]32)[C@@H](C)[C@@H]1O,< 0.031 µg/mL,> 64 µg/mL,0.125 µg/mL,0.125 µg/mL,0.125 µg/mL
C=CCCOc1ccccc1SCC(=O)O[C@@H]1C[C@@](C)(C=C)[C@@H](O)[C@H](C)[C@]23CCC(=O)[C@H]2[C@@]1(C)[C@H](C)CC3,< 0.031 µg/mL,> 64 µg/mL,0.125 µg/mL,0.031 µg/mL,< 0.031 µg/mL
C=C[C@]1(C)C[C@@H](OC(=O)CSc2ccccc2O)[C@]2(C)[C@H](C)CC[C@]3(CCC(=O)[C@H]32)[C@@H](C)[C@@H]1O,0.125 µg/mL,> 64 µg/mL,0.125 µg/mL,0.125 µg/mL,0.125 µg/mL
C=C[C@]1(C)C[C@@H](OC(=O)CSc2cccc(OCCCC)c2)[C@]2(C)[C@H](C)CC[C@]3(CCC(=O)[C@H]32)[C@@H](C)[C@@H]1O,2 µg/mL,> 64 µg/mL,2 µg/mL,1 µg/mL,2 µg/mL
C=C[C@]1(C)C[C@@H](OC(=O)CSc2ccc(OCC(=O)N3CCS(=O)(=O)CC3)cc2)[C@]2(C)[C@H](C)CC[C@]3(CCC(=O)[C@H]32)[C@@H](C)[C@@H]1O,0.25 µg/mL,> 64 µg/mL,< 0.031 µg/mL,< 0.031 µg/mL,< 0.031 µg/mL
C=C[C@]1(C)C[C@@H](OC(=O)CSc2ccc(OCc3ccc(C)cc3)cc2)[C@]2(C)[C@H](C)CC[C@]3(CCC(=O)[C@H]32)[C@@H](C)[C@@H]1O,16 µg/mL,> 64 µg/mL,16 µg/mL,16 µg/mL,16 µg/mL
C=C[C@]1(C)C[C@@H](OC(=O)CSc2ccc(OCCCC)cc2)[C@]2(C)[C@H](C)CC[C@]3(CCC(=O)[C@H]32)[C@@H](C)[C@@H]1O,0.5 µg/mL,> 64 µg/mL,1 µg/mL,0.5 µg/mL,2 µg/mL
